From paper PMC8230625 (International Journal of Molecular Sciences, 2021)
“And” between values parts separate entries of the source, which are not always exact repeats. Equal entries are not always repeated. Where two headings read alike, the source gives them in different places.

How the values were obtained:
HeLa cells = test: in vitro; details: for Concentration at (and above) which statistically significant (p < 0.01) decrease in cell viability was noticed: 24 h incubation, single compound; for IC50: Homo sapiens, read-out: Dm (IC50), viability of HeLa cells (ATP/well); for Effect of the non-toxic (subtoxic) concentration of the compound on ATP levels of ZEN-exposed cells: co-exposure with toxic concentration of ZEN (20 μM), compared to ZEN-exposed cells, Figure 3A
Description: (§1) The HeLa cervical cancer adherent cell line (ATCC: CCL-2) was applied for the evaluation of individual and combined effects of mycotoxins on cell viability. The cells were cultured in DMEM (high glucose, 4500 mg/L) with 10% FBS, penicillin (100 U/mL), and streptomycin (100 μg/mL) in sterile plastic cell culture flasks (75 cm^2; 5% CO2, 37 °C). The cells were trypsinized and plated onto 96-well sterile plastic plates. Stock solutions (each 5000 μM) of ZEN, ZELs, ZAN, and ZALs used in cell experiments were prepared in 96 v/v% ethanol (spectroscopic grade; VWR, Debrecen, Hungary). Stock solutions of AOH (5000 μM or 40 mM) were prepared in spectroscopic grade dimethyl sulfoxide (DMSO; Fluka, Morris Plains, NJ, USA). Mycotoxin stock solutions were stored at −20 °C.
(§2) HeLa cells were treated with ZEN, α/β-ZEL, ZAN, α/β-ZAL, and AOH (0–250 μM) for 24 h. […] The cell viability was evaluated based on the ATP levels/well employing a previously described method without modifications.
(§3) Combined effects were evaluated based on combination indices (CI) determined using the CompuSyn software (ComboSyn Inc., Paramus, NJ, USA) by the median-effect equation of the mass-action law:(1) logfa/fu=m×log(D)−m×log(Dm), where fa and fu are the affected and unaffected fractions of the system, respectively; D represents the dose, Dm denotes the dose necessary for the production of median effect, while m is the sigmoidicity coefficient (m > 1 sigmoidal, m = 1 hyperbolic, m < 1 flat sigmoidal).
(§4) The combined effects of mycotoxins were determined by the CI values calculated based on the following equation [68]:(2) CI=(D)1/(Dx)1+(D)2/(Dx)2, where (Dx)1 and (Dx)2 are the individual doses necessary for the production of x% effect, while (D)1 and (D)2 are the doses of the two compounds that combined evoke the same effect as (Dx)1 alone or (Dx)2 alone, i.e., the targeted x% effect.

in vitro = details: human
Description: as §1, §2, §3, §4

[1] = biological target: T1, hERα (Saccharomyces cerevisiae BLYES strain) (Homo sapiens, UniProt P03372); test: cell-based; type: cell-based; details: for CI Value (combination index) / Combined Estrogenic Effect / Combined Estrogenic Effect (grade symbol): + 6.28 × 10^−2 µM ZEN; for Combined estrogenic effect in Figure 5B: + 62.8 ×10^-3 μM ZEN; for Effect of subtoxic (non-estrogenic) concentration of the compound on the estrogenic effect of ZEN: co-treatment with ZEN (approx. 20% estrogenicity), α-ZEL 1.56 × 10^−3 µM, ZAN 6.24 × 10^−3 µM, AOH up to 48.4 µM, Figure 5A; for Concentration at (and above) which statistically significant (p < 0.01) estrogenic effect was observed: single compound
T1 construct: expressed in transfected cells; host or cells: Saccharomyces cerevisiae BLYES strain (hERα gene integrated in the chromosome)
Source text: The Saccharomyces cerevisiae BLYES strain was applied to examine the estrogenic activity of the compounds tested. This bioluminescent yeast bioreporter harbors the hERα gene on its chromosome, and it has two plasmids with genes responsible for bioluminescence. The pUTK404 plasmid contains luxC, -D, and -E genes from Photorhabdus luminescens and flavin oxidoreductase gene (frp) from Vibrio harveyi. The pUTK407 plasmid contains tandem estrogen responsive elements (EREs) that initiate the transcription of luxA and luxB genes after binding the dimer formed by estrogen receptor—ligand complexes.
S. cerevisiae BLYES strain was grown in 30 mL of yeast growth medium (YMM leu-, ura-) for 18–20 h at 30 °C.
Stock solutions of the compounds tested were prepared in methanol and stored at −20 °C. Estrogen assays were carried out on 96-well (PS, F-bottom) microplates (Greiner Bio-One Hungary Ltd., Mosonmagyaróvár, Hungary). In single compound tests, stock solutions of the compounds were serially diluted with methanol; whereas, in co-exposure experiments, a 20-µL mixture of the solutions was placed into the wells of the microplates. After the evaporation of methanol, yeast culture (200 µL; OD600 of 1.000 ± 0.050) were pipetted into each well. E2 was applied as a positive control, while wells containing only yeast cells and yeast cells with methanol served as negative and solvent controls, respectively. Bioluminescence (cps, counts per second) was measured after 5-h incubation (30 °C) with a VictorX Multilabel Plate Reader (Perkin Elmer Inc., Waltham, MA, USA).
as §3, §4
Zero percent was defined in each measurement as the mean of the methanol control values, and 100% was defined as the mean of all plateau values of single compounds’ concentration—response curves.

[2] = HeLa, 24 h, 10 µM (lower toxic concentration) of the compound + 20 µM ZEN
[3] = HeLa, 24 h, 10 µM of the compound + 20 µM ZEN
[4] = HeLa, 24 h, 10 µM of the compound + 20 µM ZEN, CompuSyn
[5] = HeLa, 24 h, 30 µM (higher toxic concentration) of the compound + 20 µM ZEN
[6] = HeLa, 24 h, 30 µM of the compound + 20 µM ZEN
[7] = HeLa, 24 h, 30 µM of the compound + 20 µM ZEN, CompuSyn
[8] = BLYES, higher concentration (µM): α-ZEL 1.25 × 10^−2, β-ZEL 2.43, ZAN 4.99 × 10^−2, α-ZAL 2.48 × 10^−2, β-ZAL 2.48 × 10^−1, GEN 1.48
[9] = BLYES, higher estrogenic concentration of the compound (as E22)
[10] = BLYES, lower concentration (µM): α-ZEL 6.24 × 10^−3, β-ZEL 1.22, ZAN 2.50 × 10^−2, α-ZAL 1.24 × 10^−2, β-ZAL 1.24 × 10^−1, GEN 7.4 × 10^−1
[11] = BLYES, lower estrogenic concentration of the compound (as E21)
[12] = BLYES, higher estrogenic concentration of the compound (as E20)
[13] = BLYES, lower estrogenic concentration of the compound (as E19)

T1 sequence (P03372 whole entry): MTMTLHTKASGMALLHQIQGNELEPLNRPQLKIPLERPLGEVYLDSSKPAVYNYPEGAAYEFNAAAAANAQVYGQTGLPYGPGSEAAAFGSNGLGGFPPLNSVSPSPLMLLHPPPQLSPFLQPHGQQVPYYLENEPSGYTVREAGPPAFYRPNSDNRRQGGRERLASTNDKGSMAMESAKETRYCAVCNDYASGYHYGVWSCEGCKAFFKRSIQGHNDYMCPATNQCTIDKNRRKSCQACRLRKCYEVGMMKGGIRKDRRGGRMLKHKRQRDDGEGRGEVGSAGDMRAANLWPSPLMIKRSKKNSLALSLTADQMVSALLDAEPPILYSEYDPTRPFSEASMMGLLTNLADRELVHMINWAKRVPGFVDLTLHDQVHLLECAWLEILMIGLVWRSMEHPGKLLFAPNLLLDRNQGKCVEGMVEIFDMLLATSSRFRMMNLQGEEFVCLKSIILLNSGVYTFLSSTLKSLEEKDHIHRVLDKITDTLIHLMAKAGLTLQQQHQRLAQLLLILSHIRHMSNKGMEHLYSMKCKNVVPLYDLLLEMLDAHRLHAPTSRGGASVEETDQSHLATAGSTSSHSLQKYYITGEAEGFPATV

| SMILES | Combined cytotoxic effect in Figure 3B (HeLa cells; [2]) | Combined Cytotoxic Effect (HeLa cells; [3]) | Combined Cytotoxic Effect (grade symbol) (HeLa cells; [3]) | Combined cytotoxic effect in Figure 3B (HeLa cells; [5]) | Combined Cytotoxic Effect (HeLa cells; [6]) | Combined Cytotoxic Effect (grade symbol) (HeLa cells; [6]) | Concentration at (and above) which statistically significant (p < 0.01) decrease in cell viability was noticed (HeLa cells; HeLa) | IC50 (HeLa cells; HeLa, 24 h) | cytotoxicity at 10 µM (in vitro) | cytotoxicity at 30 µM (in vitro) | EC50 [1] | CI Value (combination index) [1, 8] | Combined Estrogenic Effect [1, 9] | Combined Estrogenic Effect (grade symbol) [1, 9] | CI Value (combination index) [1, 10] | Combined Estrogenic Effect [1, 11] | Combined Estrogenic Effect (grade symbol) [1, 11] | Combined estrogenic effect in Figure 5B [1, 12] | Combined estrogenic effect in Figure 5B [1, 13] | Concentration at (and above) which statistically significant (p < 0.01) estrogenic effect was observed ([1]; BLYES) | further results |
| --- | --- | --- | --- | --- | --- | --- | --- | --- | --- | --- | --- | --- | --- | --- | --- | --- | --- | --- | --- | --- | --- |
| C[C@H]1CCCC(=O)CCCCCc2cc(O)cc(O)c2C(=O)O1 [ZAN, zearalanone] | Syn and synergism | Synergism (CI < 0.8: synergism) | ++ (CI < 0.60: ++) | Syn and synergism | Synergism (CI < 0.8: synergism) | + (0.60 < CI < 0.80: +) | 10 µM | 61.5 µM | 13.2% | 34.8% | 0.048 µM | 0.62 | Synergism (CI < 0.8: synergism) | + (0.60 < CI < 0.80: +) | 0.58 | Synergism (CI < 0.8: synergism) | ++ (CI < 0.60: ++) | synergism | synergism | 0.012 µM | CI Value (combination index) (HeLa cells; [4]): 0.55; CI Value (combination index) (HeLa cells; [7]): 0.77; Effect of subtoxic (non-estrogenic) concentration of the compound on the estrogenic effect of ZEN ([1]; BLYES): statistically significant (p < 0.05) increases |
| C[C@H]1CCCC(=O)CCC/C=C/c2cc(O)cc(O)c2C(=O)O1 [ZEN, zearalenone] |  |  |  |  |  |  | 10 µM | 56.4 µM |  |  | 0.46 µM |  |  |  |  |  |  |  |  | 0.031 µM | cytotoxicity (HeLa cells; read-out: Decrease in cellular ATP levels (% of control), individual effect, HeLa, 24 h, single compound at 20 μM, 20 µM): ~30%; cytotoxicity at 24 h, 20 µM (in vitro; Decrease in cellular ATP levels (% of control), individual effect, HeLa, 24 h, single compound at 20 μM): 30.1%; Estrogenic effect (% increase), individual effect ([1]; BLYES, ZEN alone at 62.8 ×10^-3 μM (6.3 × 10^−2 µM)): approximately 20% |
| C[C@H]1CCC[C@H](O)CCCCCc2cc(O)cc(O)c2C(=O)O1 [α-ZAL, α-zearalanol] | Syn | Synergism (CI < 0.8: synergism) | ++ (CI < 0.60: ++) | Syn | Synergism (CI < 0.8: synergism) | + (0.60 < CI < 0.80: +) | 20 µM | 63.8 µM | 1.9% | 19.3% | 0.019 µM | 1.16 | Additive effect (0.8 < CI < 1.2: additive effect) | ± (0.80 < CI < 1.20: ±) | 0.97 | Additive effect (0.8 < CI < 1.2: additive effect) | ± (0.80 < CI < 1.20: ±) | additive combined effects | additive combined effects | 0.024 µM | CI Value (combination index) (HeLa cells): 0.78 and 0.52; Effect of the non-toxic (subtoxic) concentration of the compound on ATP levels of ZEN-exposed cells (HeLa cells; HeLa, 24 h): statistically significant (p < 0.01) decreases in ATP levels |
| C[C@H]1CCC[C@H](O)CCC/C=C/c2cc(O)cc(O)c2C(=O)O1 [α-ZEL, α-zearalenol] | Syn | Synergism (CI < 0.8: synergism) | ++ (CI < 0.60: ++) | Add | Additive effect (0.8 < CI < 1.2: additive effect) | ± (0.80 < CI < 1.20: ±) | 20 µM | 44.6 µM | 5.5% | 38.4% | 0.019 µM | 0.41 | Synergism (CI < 0.8: synergism) | ++ (CI < 0.60: ++) | 0.37 | Synergism (CI < 0.8: synergism) | ++ (CI < 0.60: ++) | synergism | synergism |  | CI Value (combination index) (HeLa cells; [4]): 0.57; CI Value (combination index) (HeLa cells; [7]): 0.81; Effect of subtoxic (non-estrogenic) concentration of the compound on the estrogenic effect of ZEN ([1]; BLYES): statistically significant (p < 0.05) increases |
| C[C@H]1CCC[C@@H](O)CCCCCc2cc(O)cc(O)c2C(=O)O1 [β-ZAL, β-zearalanol] | Syn | Synergism (CI < 0.8: synergism) | ++ (CI < 0.60: ++) | Syn | Synergism (CI < 0.8: synergism) | + (0.60 < CI < 0.80: +) | 10 µM | 64.5 µM | 9.6% | 28% | 0.18 µM | 1.56 | Antagonism (CI > 1.2: antagonism) | -- (CI > 1.40: --) | 1.19 | Additive effect (0.8 < CI < 1.2: additive effect) | ± (0.80 < CI < 1.20: ±) | antagonism | additive effect | 0.03 µM | CI Value (combination index) (HeLa cells): 0.51 and 0.72; Effect of the non-toxic (subtoxic) concentration of the compound on ATP levels of ZEN-exposed cells (HeLa cells; HeLa, 24 h): statistically significant (p < 0.01) decreases in ATP levels |
